Source: patent US20250295639A1, “METHODS FOR TREATING HEART DISEASES” (Cytokinetics, Incorporated, priority 2024, published 2025)
Where “and” joins values, the source holds several entries; their conditions need not be identical. Identical values can stand only once.

How the values were obtained:
[1] = test system: patients with nonobstructive hypertrophic cardiomyopathy (nHCM); experiment: FOREST-HCM open-label extension, 36-week analysis in nHCM; format: in vivo, human
Excerpt: An open-label extension clinical trial of aficamten in patients with symptomatic oHCM was initiated and was described as Example 3b in WO 2024/031016 and in U.S. Patent Publication US-2024-0115554-A1, the disclosures of which are incorporated by reference herein. The treatment duration is anticipated to be multiple years. The primary objective of the trial is to determine the safety and tolerability of aficamten over a 5-year period. Safety and efficacy of aficamten in patients with nonobstructive hypertrophic cardiomyopathy (nHCM). Thirty-four patients were enrolled (mean age±SD 57.2±15.3 years, 62% women). At baseline, patients were symptomatic (41% NYHA class III) with median (IQR) NT-proBNP and hs-cTnI of […] (735, 1735) and 24.9 ng/L (9.7, 46.4), respectively. By the end of the titration period (week 6), 3 (8.8%), 3 (8.8%), 6 (17.6%) and 22 (64.7%) patients received doses of 5, 10, 15, and 20 mg daily, respectively. At baseline, LVEF (mean±SD) was 70%±6.1; over 36-weeks, there was a modest reduction of 4.3%±5.2 (p<0.0001). NYHA class improved by ≥1 class in 27 (79.4%) patients, including 20 (58.8%) were asymptomatic (NYHA class I) by week 36. The mean KCCQ-CSS improved by 13.8±12.52 points relative to baseline, with 24/31 (77.4%) patients reporting improvements of ≥5 points. […] Most patients achieved the highest available dose while maintaining normal LVEF.

[2] = test system: patients with symptomatic oHCM; experiment: SEQUOIA-HCM secondary analysis: clinical response / responder analyses (NYHA class, KCCQ-CSS, hemodynamic response, exercise capacity); format: in vivo, human
Excerpt: A secondary objective of this trial was to evaluate the effect of aficamten on patient health status, as determined by changes in the Kansas City Cardiomyopathy Questionnaire-Clinical Summary Score (KCCQ-CSS) from baseline to Week 12 and Week 24. A further secondary objective of this trial was to evaluate the effect of aficamten on New York Heart Association (NYHA) Functional Classification, as determined by the proportion of patients with ≥1 class improvement in NYHA Functional Class from baseline to Week 12 and Week 24. An exploratory objective of this trial was to evaluate the effect of aficamten on exercise capacity and functional class, as determined by comparing with baseline, the number of patients at Week 24 achieving either (1) change from baseline of ≥1.5 mL/kg/min in pVO2 AND ≥1 class improvement in NYHA Functional Class; or (2) Change from baseline of ≥3.0 mL/kg/min in pVO2 AND no worsening of NYHA Functional Class. A further exploratory objective of this trial was to evaluate the effect of aficamten on patient response over time, as determined by (1) […]; (2) proportion of patients with resting LVOT-G<30 mmHg, post-Valsalva LVOT-G<50 mmHg, […]; and (3) proportion of patients with resting LVOT-G<30 mmHg, post-Valsalva LVOT-G<50 mmHg, […] Secondary Analysis of the Results of the SEQUOIA-HCM Study. In a sub-analysis of the results of Example 8 (i.e, the results of the SEQUOIA-HCM Study) we sought to comprehensively characterize the broad clinical impact of aficamten with respect to responder analyses across a number of clinically relevant, patient-centric outcome domains. […] For patients with missing data, the last available observation (week 8 to week 20) was used. Patients with no available data on or after week 8 were classified as not meeting the efficacy criteria. Patients were then classified according to the number of efficacy outcome definitions that they met. Baseline characteristics were summarized using means and standard deviations or median and interquartile for continuous normal and skewed variables, as well as counts and percentages for categorical variables. These characteristics were compared across groups using trend tests (linear regression, chi-squared tests of trend, and Cuzick's non-parametric trend tests). Proportions of patients meeting each efficacy outcome definition were compared between treatment groups using chi-squared tests, and linear regression was used to assess the treatment effect of aficamten vs placebo on change in efficacy outcomes while also adjusting for baseline value, CPET modality at baseline and beta blocker use at baseline. No adjustments were made for multiple comparisons. Two-sided p-values less than 0.05 were considered statistically significant.

[3] = 142 patients treated with aficamten
[4] = of the 101 aficamten symptomatic responders

CCc1nc(-c2ccc3c(c2)CC[C@H]3NC(=O)c2cnn(C)c2)no1 [aficamten, (R)—N-(5-(5-ethyl-1,2,4-oxadiazol-3-yl)-2,3-dihydro-1H-inden-1-yl)-1-methyl-1H-pyrazole-4-carboxamide]
patients reporting KCCQ-CSS improvements of ≥5 points ([1]; 24/31 patients): 77.4% | patients asymptomatic (NYHA class I) ([1]; by week 36): 58.8% | drug discontinuations due to adverse events ([1]; in vivo): no drug discontinuations due to adverse events | patients with LVEF<50% ([1]; in vivo): 5.9% | reduction in LVEF (mean±SD) ([1]; over 36-weeks): 4.3% | tolerability ([1]; over the study period): well tolerated | NT-proBNP median change from baseline ([1]; week 36): -665.5 pg/mL | hs-cTnI median change from baseline ([1]; week 36): -2.7 ng/L | mean KCCQ-CSS improvement relative to baseline ([1]; week 36): 13.8±12.52 points | patients with NYHA class improved by ≥1 class ([1]; week 36): 79.4% | patients with moderate to large KCCQ-CSS improvement of ≥10 to <20 ([2]; 142 patients on aficamten): 27% | patients with no change or a decrease in KCCQ-CSS score (<5 points) ([2]; 142 patients on aficamten): 37% | patients with small KCCQ-CSS improvement of ≥5 to <10 ([2]; 142 patients on aficamten): 13% | patients with very large KCCQ-CSS change of ≥20 ([2]; 142 patients on aficamten): 22% | patients improved from NYHA class II to I [2, 3]: 39% | patients improved from NYHA class III to I [2, 3]: 11% | patients improved from NYHA class III to II [2, 3]: 9% | patients with no change in NYHA class [2, 3]: 38% | patients worsened from NYHA class II to class III [2, 3]: 2% | >1.5 mL/kg/min increase in pVO2 and ≥1 NYHA class improvement or ≥3.0 mL/kg/min increase in pVO2 and no worsening of NYHA class ([2]; Aficamten (N = 142)): 60 (42) n (%) | ≥1.5 mL/kg/min increase in pVO2 and ≥1 NYHA class improvement ([2]; Aficamten (N = 142)): 44 (31) n (%) | ≥3.0 mL/kg/min increase in pVO2 and no worsening of NYHA class ([2]; Aficamten (N = 142)): 37 (26) n (%) | ≥3.0 mL/kg/min increase in pVO2 and ≥1 NYHA class improvement ([2]; Aficamten (N = 142)): 21 (15) n (%) | responder endpoint, difference vs. placebo ([2]; Week 24): 28.7% | responder endpoint, number needed to treat (NNT) ([2]; Week 24): 3 | patients with improvement of ≥1 NYHA functional class and/or ≥10 point increase in KCCQ-CSS (symptomatic response) ([2]; aficamten group, week 2): 36% | patients with complete hemodynamic response (rest gradient <30 mmHg and Valsalva gradient <50 mmHg) ([2]; aficamten group, week 8): 70% | patients with improvement of ≥1 NYHA functional class and/or ≥10 point increase in KCCQ-CSS (symptomatic response) ([2]; aficamten group, week 8): 58% | patients achieving ≥1 of the 4 prespecified clinical response measures ([2]; aficamten group, week 24): 97% | patients improved in 2 clinical response measures ([2]; aficamten group, week 24): 26% | patients improved in 3 clinical response measures ([2]; aficamten group, week 24): 39% | patients improved in all 4 clinical response measures ([2]; aficamten group, week 24): 23% | patients who achieved one clinical response measure ([2]; aficamten group, week 24): 9% | patients with improvement in exercise capacity, pVO2 of ≥1.5 mL/kg/min ([2]; aficamten group, week 24): 47% | patients with improvement of ≥1 NYHA functional class and/or ≥10 point increase in KCCQ-CSS (symptomatic response) ([2]; aficamten group, week 24): 71% | patients meeting responder endpoint (pVO2 ≥1.5 mL/kg/min and ≥1 NYHA improvement, or pVO2 ≥3.0 mL/kg/min and no worsening in NYHA) ([2]; aficamten, Week 24): 42% and 42.3% | patients who achieved pVO2 of ≥1.5 mL/kg/min and ≥1 improvement in NYHA class ([2]; aficamten, Week 24): 31% | patients with pVO2 ≥3.0 mL/kg/min and no worsening in NYHA ([2]; aficamten, Week 24): 26% | patients who resolved their symptoms completely (NYHA class I) ([2]; end of the treatment period): close to half of patients | symptomatic responders with improvement in both NYHA and KCCQ [2, 4]: 51% | symptomatic responders with ≤10 point improvement in KCCQ but ≥1 improvement in NYHA functional class [2, 4]: 31% | symptomatic responders with ≥10 point improvement in KCCQ-CSS and no improvement in NYHA class [2, 4]: 18% | Common Rate Difference (vs. Placebo) ([2]; pVO2/NYHA composite responder): 29
